In ChEMBL document CHEMBL1152576, “E-Combretastatin and E-resveratrol structural modifications: antimicrobial and cancer cell growth inhibitory beta-E-nitrostyrenes” (Bioorg Med Chem, 2009):
Converted amounts (≈) assume the structure as drawn. The source made the active and inactive calls. The calls are words filed in the database; no cut-off is given here.

Experiments:
[1] = system: Stenotrophomonas maltophilia; experiment: Antimicrobial activity against Stenotrophomonas maltophilia ATCC 13637 assessed clear zone in inhibition per disk by CLSI disk diffusion susceptibility assay; assay type: functional
[2] = system: Enterobacter cloacae; experiment: Antimicrobial activity against Enterobacter cloacae ATCC 13047 assessed clear zone in inhibition per disk by CLSI disk diffusion susceptibility assay; assay type: functional
[3] = system: Candida albicans; experiment: Antimicrobial activity against Candida albicans ATCC 90028 assessed clear zone in inhibition per disk by CLSI disk diffusion susceptibility assay; assay type: functional
[4] = system: MCF7; experiment: Cytotoxicity against human MCF7 cells after 48 hrs by sulforhodamine B assay; assay type: functional
[5] = system: Cryptococcus neoformans; experiment: Antimicrobial activity against Cryptococcus neoformans ATCC 90112 assessed clear zone in inhibition per disk by CLSI disk diffusion susceptibility assay; assay type: functional
[6] = system: NCI-H460; experiment: Cytotoxicity against human NCI-H460 cells after 48 hrs by sulforhodamine B assay; assay type: functional
[7] = system: Staphylococcus aureus; experiment: Antimicrobial activity against Staphylococcus aureus ATCC 29213 assessed clear zone in inhibition per disk by CLSI disk diffusion susceptibility assay; assay type: functional
[8] = system: BXPC-3; experiment: Cytotoxicity against human BxPC3 cells after 48 hrs by sulforhodamine B assay; assay type: functional
[9] = system: Neisseria gonorrhoeae; experiment: Antimicrobial activity against Neisseria gonorrhoeae ATCC 49226 assessed clear zone of inhibition measured per disk by CLSI disk diffusion susceptibility assay; assay type: functional
[10] = system: Micrococcus luteus; experiment: Antimicrobial activity against Micrococcus luteus Presque Isle 456 assessed clear zone in inhibition per disk by CLSI disk diffusion susceptibility assay; assay type: functional
[11] = system: A498; experiment: Cytotoxicity against human A498 cells after 48 hrs by sulforhodamine B assay; assay type: functional
[12] = system: SF-295; experiment: Cytotoxicity against human SF295 cells after 48 hrs by sulforhodamine B assay; assay type: functional
[13] = system: KM-20L2; experiment: Cytotoxicity against human KM20L2 cells after 48 hrs by sulforhodamine B assay; assay type: functional
[14] = system: OVCAR-3; experiment: Cytotoxicity against human OVCAR-3 cells after 48 hrs by sulforhodamine B assay; assay type: functional
[15] = system: P388; experiment: Cytotoxicity against mouse P388 cells after 48 hrs by sulforhodamine B assay; assay type: functional; conditions: P388, 48 h, read-out: ED50 (the source's name)
[16] = system: SK-MEL-5; experiment: Cytotoxicity against human SK-MEL-5 cells after 48 hrs by sulforhodamine B assay; assay type: functional
[17] = Inhibition of tubulin polymerization
[18] = system: DU-145; experiment: Cytotoxicity against human DU145 cells after 48 hrs by sulforhodamine B assay; assay type: functional
[19] = system: Escherichia coli; experiment: Antimicrobial activity against Escherichia coli ATCC 25922 assessed clear zone in inhibition per disk by CLSI disk diffusion susceptibility assay; assay type: functional
[20] = system: SF-268; experiment: Cytotoxicity against human SF268 cells after 48 hrs by sulforhodamine B assay; assay type: functional
[21] = system: Enterococcus faecalis; experiment: Antimicrobial activity against Enterococcus faecalis ATCC 29212 assessed clear zone in inhibition per disk by CLSI disk diffusion susceptibility assay; assay type: functional
[22] = system: Streptococcus pneumoniae; experiment: Antimicrobial activity against Streptococcus pneumoniae ATCC 6303 assessed clear zone in inhibition per disk by CLSI disk diffusion susceptibility assay; assay type: functional

Compound | MIC [1] [µg] | MIC [2] [µg] | MIC [3] [µg] | MIC [5] [µg] | GI50 ([6]; NCI-H460, 48 h) [µg/mL] | MIC [7] [µg] | GI50 ([8]; BXPC-3, 48 h) [µg/mL] | MIC [9] [µg] | MIC [10] [µg] | GI50 [11] | GI50 ([13]; KM-20L2, 48 h) [µg/mL] | EC50 [15] [µg/mL] | GI50 [16] | IC50 [17] [µM] | GI50 ([18]; DU-145, 48 h) [µg/mL] | MIC [19] [µg] | MIC [21] [µg] | MIC [22] [µg] | GI50 [12] | GI50 [14] | further results
COc1cc(/C=C/[N+](=O)[O-])cc(O[Si](C)(C)C(C)(C)C)c1OC | >100 | >100 | >100 | 25 | > 10 | 3.12 | > 10 | 3.12 | 1.56 | inactive | > 10 | 32.6 (≈ 96 µM) | inactive | 12 | > 10 | >100 | 3.12 | 3.12 | – | – | GI50 [4]: inactive; GI50 ([12]; SF-295, 48 h): > 10 µg/mL; GI50 ([14]; OVCAR-3, 48 h): > 10 µg/mL; GI50 [20]: inactive
CCOc1ccc(/C=C/[N+](=O)[O-])cc1 | >100 | >100 | 3.12 | 1.56 | 1.9 (≈ 9.83 µM) | 25 | 1.2 (≈ 6.21 µM) | 0.78 | 50 | inactive | 2.4 (≈ 12.4 µM) | 3.8 (≈ 19.7 µM) | inactive | 5.5 | 2.2 (≈ 11.4 µM) | >100 | 50 | 12.5 | inactive | inactive | GI50 ([4]; MCF7, 48 h): 1.1 µg/mL (≈ 5.69 µM); GI50 ([20]; SF-268, 48 h): 1.8 µg/mL (≈ 9.32 µM)
Oc1ccc(/C=C/c2cc(O)cc(O)c2)cc1 [RESVERATROL] | – | – | – | – | – | – | – | – | – | inactive | – | – | inactive | > 40 | – | – | – | – | inactive | inactive | –
COc1ccc(/C=C/c2cc(OC)c(OC)c(OC)c2)cc1O [E-COMBRETASTATIN A-4] | – | – | – | – | 0.038 (≈ 0.12 µM) | – | 3.9 (≈ 12.3 µM) | – | – | inactive | – | 0.28 (≈ 0.885 µM) | inactive | 33 | 0.037 (≈ 0.117 µM) | – | – | – | inactive | inactive | GI50 [4]: inactive; GI50 [13]: inactive; GI50 [20]: inactive
COc1ccc(/C=C/[N+](=O)[O-])cc1OP(=O)(OCc1ccccc1)OCc1ccccc1 | >100 | >100 | >100 | >100 | > 10 | 3.12 | > 10 | 0.78 | 3.12 | inactive | > 10 | 2.2 (≈ 4.83 µM) | inactive | 10 | > 10 | >100 | 6.25 | >100 | – | – | GI50 [4]: inactive; GI50 ([12]; SF-295, 48 h): > 10 µg/mL; GI50 ([14]; OVCAR-3, 48 h): > 10 µg/mL; GI50 [20]: inactive
COc1cc(/C=C/[N+](=O)[O-])c(OC)c(OC)c1OC | 25 | >100 | 0.78 | 0.78 | – | <0.78 | – | <0.78 | 1.56 | inactive | – | 1.3 (≈ 4.83 µM) | inactive | 5.4 | – | 12.5 | 3.12 | 6.25 | inactive | inactive | GI50 [4]: inactive; GI50 [6]: inactive; GI50 [8]: inactive; GI50 [13]: inactive; GI50 [18]: inactive; GI50 [20]: inactive
COc1cc(OC)c(/C=C/[N+](=O)[O-])c(OC)c1 | >100 | >100 | >100 | >100 | 0.32 (≈ 1.34 µM) | >100 | – | >100 | >100 | – | 0.38 (≈ 1.59 µM) | 14 (≈ 58.5 µM) | – | – | – | >100 | >100 | >100 | – | – | GI50 [4]: inactive; GI50 [8]: inactive; GI50 ([11]; A498, 48 h): 0.36 µg/mL (≈ 1.5 µM); GI50 ([12]; SF-295, 48 h): 0.45 µg/mL (≈ 1.88 µM); GI50 ([14]; OVCAR-3, 48 h): 0.42 µg/mL (≈ 1.76 µM); GI50 ([16]; SK-MEL-5, 48 h): 0.61 µg/mL (≈ 2.55 µM); GI50 [18]: inactive; GI50 [20]: inactive
O=[N+]([O-])/C=C/c1ccc(OP(=O)([O-])[O-])cc1.[Na+].[Na+] | >100 | >100 | >100 | >100 | > 10 | >100 | > 10 | >100 | >100 | inactive | > 10 | 47.8 | inactive | > 40 | 57.8 | >100 | >100 | >100 | inactive | inactive | GI50 ([4]; MCF7, 48 h): > 10 µg/mL; GI50 ([20]; SF-268, 48 h): > 10 µg/mL
COc1ccc(/C=C/[N+](=O)[O-])cc1OP(=O)([O-])[O-].[Na+].[Na+] | >100 | >100 | >100 | >100 | 5.8 | >100 | > 10 | 50 | >100 | inactive | > 10 | 5.7 | inactive | 18 | 4 | >100 | >100 | >100 | inactive | inactive | GI50 ([4]; MCF7, 48 h): 4.3 µg/mL; GI50 ([20]; SF-268, 48 h): 4.2 µg/mL
Oc1ccc(/C=C\c2cc(O)cc(O)c2)cc1 [CIS-RESVERATROL] | – | – | – | – | – | – | – | – | – | inactive | 22 (≈ 96.4 µM) | – | inactive | – | – | – | – | – | inactive | inactive | GI50 ([20]; SF-268, 48 h): 5 µg/mL (≈ 21.9 µM)
COc1ccc(/C=C\c2cc(OC)c(OC)c(OC)c2)cc1O [COMBRETASTATIN A4] | – | – | – | – | 0.0006 (≈ 0.0019 µM) | – | 0.39 (≈ 1.23 µM) | – | – | inactive | 0.34 (≈ 1.07 µM) | 0.03 (≈ 0.0948 µM) | inactive | 2.1 | 0.0008 (≈ 0.00253 µM) | – | – | – | inactive | inactive | GI50 [4]: inactive
